From patent US5688767A, “Treatment of endotoxin-associated disorders with cationic peptides” (priority 1996, dated 1997)
Values after ≈ are worked out from the molar mass of the structure shown.

Assays:
[1] = system: S. typhimurium; assay: microbe, parasite or virus in culture; format: cell-based, Salmonella typhimurium
Protocol: The minimum inhibitory concentrations of (MIC) of CEME, CEMA and melittin were determined for a number of different bacteria (Table 2). Briefly, cells were grown overnight at 37° C. in LB-S (Luria broth without any salt supplement) and diluted one in 10,000 in the same medium to give concentrations of about 10^4 to 10^5 CFU/ml. The broth dilutions were set up in a 96 well microtiter plate by putting 200 μl of LB-S containing the initial concentration of antibiotic or compound in column 1 and 100 μl of the same medium in columns 2-12. The compounds were diluted by taking 100 μl of broth from column 1 and mixing it with column 2, resulting in a one in two dilution. This was continued to column 10. Finally, 10 μl of bacteria were pipetted into columns 1-11, and the plates incubated overnight at 37° C. The next day the plates were scored for growth in the wells, and the MIC determined.
Bacteria included the Bort strain of E. coli (Bortolussi, et al., Inf. Immun., 25:293, 1979) that was originally derived from a case of neonatal meningitis, and which is therefore considered a relevant pathogenic strain to study, and the 0111:B4 strain of E. coli (kindly provided by Dr. D. Morrison) which is a standard source of endotoxin. (Kelly, et al., Inf. Immun., 59:4491, 1991). In addition, P. aeruginosa PA01 strain H103, P. aeruginosa M2, P. aeruginosa K799, Eschericha coli UB 1005, Enterobacter cloacae 218S, Salmonella typhimurium MS7953s, Klebsiella pneumoniae ATCC 13883, Xanthomonas maltophilia ATCC 13637, and Acinetobacter calcoacetious 8193 were employed. LPS was obtained from E. coli Bort by the technique of Westphal and Jann, (Westphal, et al., Acad. Press, Inc. NY., 5:83) and from P. aeruginosa H103 by the method of Darveau and Hancock, (Darveau, et al., J. Bacteriol, 155:831, […]). E. coli 0111:B4 LPS was purchased from Sigma.

[2] = system: P. aeruginosa strain M2; assay: Survival of neutropenic mice challenged intraperitoneally with bacteria; format: in vivo, Pseudomonas aeruginosa
Protocol: To measure the anti-bacterial effect of peptides, a similar strategy was employed. Female CD-1 mice were rendered neutropenic with 3 injections of cyclophosphamide as described previously. (Cryz, S. J., Inf. Immun., 39(2): 1067, 1983) An […] dose of Pseudomonas aeruginosa strain M2 (approximately 10^2 organisms per mouse) was injected intra peritoneally and in the single dose experiments, 100 μl of PBS or sterile water containing 200 μg (8.7 mg/kg) of a cationic peptide was injected immediately afterwards. […] Survival was recorded at 24 and 48 hours.

[3] = system: P. aeruginosa H309 or E. cloacae 218R1; assay: Lysozyme lysis assay (outer membrane permeabilization); format: cell-based, Pseudomonas aeruginosa; Enterobacter cloacae; conditions: 50 μg/ml lysozyme, varying concentrations of compound
Protocol: Membrane permeabilization by polycationic compounds was measured in two different assays. The first assay measured membrane disruption by the ability of lysozyme to reach the periplasm and cause cell lysis. […] The uptake of lysozyme into whole cells due to membrane permeabilization by various compounds was previously described in Hancock, et al., Antimicrobial Agents and Chemo., 19:777, 1981. Overnight cultures of P. aeruginosa H309 or E. cloacae 218R1 grown in LB-S were diluted 1 in 50 in fresh medium and grown to an OD600 =0.5-0.6. The cells were harvested in a Silencer H-103N clinical centrifuge at 1800 g for 10 min, washed once with one volume of assay buffer (5 mM HEPES pH 7.2, 5 mM KCN), and resuspended in the same buffer to an OD600 of 0.5. Assays consisted of 600 μl of cells with 50 μg/ml of chicken egg white lysozyme and varying concentrations of cationic compounds. Cell lysis was measured as a decrease in the OD600 in a Perkin-Elmer dual beam spectrophotometer. Parallel experiments performed without lysozyme enabled the measurement of the lytic activity of the compounds themselves. To test whether or not permeability to lysozyme could be inhibited by divalent cations, various concentrations of MgCl2 were added to the assay after the addition of lysozyme and before the addition of the test compound.

[4] = MIC of common antibiotics in the presence of sub-MIC levels of cationic peptides; format: cell-based
From the text: The ability of the cationic peptides to work synergistically was examined by determining the MIC values for some commonly used antibiotics in the presence of sub-MIC levels of cationic peptides (Table 4). […] This may be due to the high membrane permeabilizing activity of CEMA (see below). However, the peptides did lower the MIC of polymyxin B, possibly due to the fact that they are all taken up by the same pathway and are therefore aiding each other's uptake. Of interest is the influence that melittin has on the MIC of polymyxin B, given the weak membrane permeabilizing activity of melittin.

[5] = single dose 200 μg (8.7 mg/kg) i.p.
[6] = two injections at 2 hours and 12 hour after P. aeruginosa

Row | Compound | MIC ([1]; Salmonella typhimurium MS7953s) [µg/mL] | MIC ([1]; strain C587, Parent of C590) [µg/mL] | MIC ([1]; strain C590, Defensin sensitive) [µg/mL] | Survival (%) [2, 5] [%] | Survival (survivors/total) [2, 5] | Survival (%) [2, 6] [%] | Survival (survivors/total) [2, 6] | permeabilization of outer membrane to lysozyme [3] | MIC in the presence of ([4]; CEMA 0.7 μg/ml) [μg/m1] | MIC in the presence of ([4]; CEMA 1.4 μg/ml) [μg/m1] | MIC in the presence of ([4]; CEME 0.6 μg/ml) [μg/m1] | MIC in the presence of ([4]; CEME 1.2 μg/ml) [μg/m1] | MIC in the presence of ([4]; Melittin 2 μg/ml) [μg/m1] | MIC in the presence of ([4]; Melittin 4 μg/ml) [μg/m1] | MIC in the presence of ([4]; No peptide) [μg/m1]
1 | CC[C@H](C)[C@H](NC(=O)CNC(=O)[C@@H](NC(=O)[C@H](CCCCN)NC(=O)[C@H](CCCCN)NC(=O)[C@H](Cc1ccccc1)NC(=O)[C@H](CC(C)C)NC(=O)[C@H](CCCCN)NC(=O)[C@H](Cc1c[nH]c2ccccc12)NC(=O)[C@@H](N)CCCCN)[C@@H](C)CC)C(=O)NCC(=O)N[C@@H](C)C(=O)N[C@H](C(=O)N[C@@H](CC(C)C)C(=O)N[C@@H](CCCCN)C(=O)N[C@H](C(=O)N[C@@H](CC(C)C)C(=O)N[C@H](C(=O)N[C@H](C(=O)NCC(=O)N[C@@H](CC(C)C)C(=O)N1CCC[C@H]1C(=O)N[C@@H](C)C(=O)N[C@@H](CC(C)C)C(=O)N[C@@H](CCCCN)C(=O)N[C@@H](CC(C)C)C(=O)N[C@H](C(=O)N[C@@H](CCCCN)C(=O)O)[C@@H](C)O)[C@@H](C)O)[C@@H](C)O)C(C)C)C(C)C [CEMA] | 4 (≈ 1.3 µM) | 5.6 (≈ 1.83 µM) | 1.4 (≈ 0.457 µM) | 43.3 | 13/30 | 55.0 | 11/20 | stronger permeabilizer for lysozyme than polymyxin B |  |  |  |  |  |  | 
2 | polymyxin B |  |  |  |  |  |  |  |  | 0.5 | 0.12 | 0.5 | 0.25 | 0.5 | 0.06 | 1
